Test results published in patent US20160136229A1, “MATERIALS FOR POSITIVE CATHEPSIN B MODULATION AND METHODS OF USE FOR TREATING MILD COGNITIVE IMPAIRMENT (MCI), EARLY DEMENTIA, A-SYNUCLEINOPATHY, TRAUMATIC BRAIN INJURY, CARDIOMYOPATHY, EYE DISEASE AND SKIN DAMAGE” (University of North Carolina at Pembroke, priority 2013, published 2016).

Key:
[1] = tested on: human α-synuclein; test: Human α-synuclein clearance in A53T transgenic mice; assay type: in vivo, mouse; conditions: i.p., 18 mg/kg/day, p=0.01 vs vehicle-treated A53T mice
Procedure: (§1) FIG. 4. Enhancing lysosome efficiency with the cathepsin B modulator PADK leads to reductions of multiple types of proteinopathy-related accumulation events. […] Age-matched wild-type mice (wt) and 9-10-month mutant human APP mice, a model of early dementia, treated with or without PADK were assessed for the 4-kDa Δβ peptide, the active form of cathepsin B (act CB), and other proteins in hippocampal samples (C). Similar treatment groups used another APP mouse model at 20-22 months of age to measure clearance of APP carboxyterminal fragments APP-αCTF and APP-βCTF (D). Rat hippocampal slice cultures from the untreated control group (con) and slices treated with submicromolar Δβ42 (early tauopathy model) in the absence or presence of PADK (5 μM for 4 days) were assessed for phosphorylated tau (pTau) and other proteins (E). For a model of early α-synucleinopathy, human A53T α-synuclein transgenic mice, at 7 months old, were studied with or without PADK treatment and assessed for human α-synuclein (α-syn) in TX-100 extracts of hippocampus and for other proteins in hippocampal homogenates (F). Plotted data (±SEM) were compared to neighboring vehicle groups by unpaired t-tests: *p=0.02, **p<0.01, ***p<0.001. APPswind and APP-PS1 mice are described in Butler et al., (2011), the entire content of which is hereby incorporated herein by reference.
FIG. 6. […]

[2] = tested on: 11-month Fischer rats; test: Passive avoidance task in 11-month Fischer rats (model of MCI and early dementia); assay type: in vivo, rat; conditions: 27 mg/kg daily
Procedure: (§2) FIG. 2. The cathepsin B modulatory compound PADK improved learning and memory in 11-month Fischer rats, a model of mild cognitive impairment (MCI) and early dementia. A classic passive avoidance task to assess memory utilized a bi-sectioned apparatus consisting of a brightly-lit compartment and a dark compartment separated by a small door. […] In this figure, the female rats were injected daily with vehicle or 27 mg/kg PADK. Following each morning's injection, the rats were placed individually into the bright compartment and, after 10 s, the door was opened through which the rats typically entered immediately (3 min total time in apparatus/rat/day). Panel A: On the seventh injection day, latency time before entering the opened doorway was measured (pre-shock bars, mean±SEM), after which the door was closed to contain the animal in the dark compartment. A mild foot shock of 0.6 mA, 2 s duration, was then administered to the contained rat via the floor grid. Following the next day's injections, rats were again placed in the bright compartment and latency times measured after the door was opened (post-shock bars). […] Brains were removed after the behavior studies in order to assess cathepsin B levels.
In the 11-month Fischer rats, a model of MCI and early dementia, PADK improved passive avoidance memory. […]

[3] = tested on: human A53T α-synuclein transgenic mice; test: Open field test in A53T α-synuclein transgenic mice; assay type: in vivo, mouse; conditions: A53T mice 7-8 months; 18 mg/kg/day for 11 days
Procedure: FIG. 5. The cathepsin B modulator PADK also has a behavioral effect during early α-synucleinopathy. Vehicle-treated and PADK in the model of early α-synucleinopathy, human A53T α-synuclein transgenic mice, 7-8 months old, were injected with vehicle or PADK (18 mg/kg/day) for 11 days and their locomotor activity was measured in the open field test (OFT) for two days, center and perimeter crossings were measured. No difference in center crossings was found on day 1 as compared to wild-type mice (left graph), thus an indication of pre-symptomatic early stage Parkinson's disease (PD) before typical locomotor deficits. However, center crossings are often used as a measure of altered anxiety in PD mice. […] The altered anxiety in the vehicle-treated A53T mice appears to be a selective effect since perimeter crossings on day 2 were unchanged (right graph).

[4] = biological target: T1, active form of cathepsin B (Mus musculus, UniProt P10605); test: Active cathepsin B immunoblot in CNS regions of A53T α-synuclein transgenic mice; assay type: in vivo; conditions: i.p., 18 mg/kg/day
T1 construct: from tissue; host or cells: brain and CNS regions of mice (PADK-treated mice, A53T transgenic and wild-type mice, C57BL/6 mice)
Procedure: as §1
FIG. 6. […]

[5] = tested on: 11-month Fischer rats; test: Exploratory habituation in novel field, Fischer rats; assay type: in vivo, rat; conditions: 27 mg/kg daily, vs vehicle-treated rats
Procedure: as §2
The animal groups were also tested across two days in the same novel field, and the number of grid crossings per 3-min period was measured to determine exploratory habituation.

[6] = tested on: cathepsin B; test: Cathepsin B species immunoblot in heart tissue of A53T mice; assay type: in vivo, mouse
Procedure: FIG. 8. PADK also enhances cathepsin B species in the heart. The A53T early α-synucleinopathy mouse model was injected daily with vehicle or PADK (i.p., 18 mg/kg/day) to test for changes in heart tissue. […] Positions of molecular weight standards (kDa) are shown on the left side of the immunoblot. (B) In the lower graph, ratios between CB-30 and CB-105 (mean±SEM) provide a good example of the unique PADK effect on cathepsin B species in the heart. **P<0.01 as compared to vehicle-treated A53T mice.
Ratio measures between the 30-kDa form and the 105-kDa species indicate a unique PADK effect on cathepsin B species in the heart (FIG. 8 bar graph).

T1 sequence (P10605 80-333 limits assumed): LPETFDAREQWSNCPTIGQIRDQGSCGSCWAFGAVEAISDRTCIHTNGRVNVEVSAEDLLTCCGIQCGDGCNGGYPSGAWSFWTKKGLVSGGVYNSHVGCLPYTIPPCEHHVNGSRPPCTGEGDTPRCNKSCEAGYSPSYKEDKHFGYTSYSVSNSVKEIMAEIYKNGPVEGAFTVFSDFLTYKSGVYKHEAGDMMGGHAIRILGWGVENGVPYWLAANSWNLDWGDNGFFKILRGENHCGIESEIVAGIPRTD

## C[C@H](NC(=O)[C@H](Cc1ccccc1)NC(=O)OCc1ccccc1)C(=O)C=[N+]=[N-] [PADK, N-carbobenzyloxy-L-phenylalanyl-L-alanyl-diazomethylketone]
[1]
  human α-synuclein levels: decrease
[2]; day after 0.6 mA foot shock, vs vehicle, P=0.016
  passive avoidance behavior (latency post-shock): improve passive avoidance behavior
[2]; seventh injection day, vs vehicle-treated aged rats
  latency time before entering the opened doorway, pre-shock: no difference
[3]
  center crossings on day 2 (altered anxiety): did not consistently exhibit such a positive trend
[4]; 7-8 months
  active CatB levels increase in brains: 3-6 fold
[4]; 7 months, p<0.02 vs vehicle-treated tg
  active form of cathepsin B across CNS regions (immunoblot): robust PADK-mediated increase
[5]
  grid crossings per 3-min period, day 1: No significant difference
[5]; P<0.05
  exploratory habituation, second day: improved habituation
[6]; A53T mice, i.p., 18 mg/kg/day
  high molecular weight cathepsin B species (CB-80, CB-85, CB-105) in heart: returned the high molecular weight species to near normal levels
[6]; heart tissue, p<0.01 vs vehicle-treated A53T mice
  ratio between active cathepsin B form of 30 kDa and the precursor of >100 kDa: enhances the ratio
